Experimental data taken from paper PMC3853768 (Molecular Pain, 2013).
Several values for one entry are separate records, joined by “and”; a condition that tells them apart may be missing. Equal values may be shown once. Entries after “also recorded” stand apart in the source; their conditions may differ. Positions of bridges follow the written chain, without caps; N, C: chain ends. Residues, ends and D or L forms follow the SMILES beside them.

Tests used:
[1] = system: CFA-injected mice (C57 Bl6); settings: mouse, in vivo
[2] = system: P/Q-type channels (Cav2.1); type: cell-based, mouse
L-type = type: cell-based, mouse
[3] = system: N-type calcium channels with auxiliary subunits; settings: cited from earlier work
patients = settings: in vivo; cited from earlier work

Compound: C[C@@H]1NC(=O)CNC(=O)[C@H](CCCCN)NC(=O)CNC(=O)[C@H](CCCCN)NC(=O)[C@@H](N)CSSC[C@@H]2NC(=O)[C@@H]3CSSC[C@@H](C(N)=O)NC(=O)[C@H](CCCNC(=N)N)NC(=O)CNC(=O)[C@H](CO)NC(=O)[C@H](CCCNC(=N)N)NC(=O)[C@H](CSSC[C@H](NC(=O)[C@H](CO)NC1=O)C(=O)N[C@@H](CCCNC(=N)N)C(=O)N[C@@H](CCCNC(=N)N)C(=O)N[C@@H]([C@@H](C)O)C(=O)N[C@@H](CO)C(=O)N[C@@H](Cc1ccc(O)cc1)C(=O)N[C@@H](CC(=O)O)C(=O)N3)NC(=O)[C@H](CO)NC(=O)CNC(=O)[C@H]([C@@H](C)O)NC2=O [CVIE]
- reversal of CFA-induced incapacitance (impaired weight bearing) [1]: partially reversed impaired weight bearing; also recorded: most effective at reversing mechanical alldoynia; also recorded: significant reversal of incapacitance; also recorded: most effective at reversal of pain; also recorded: reverse signs of inflammatory pain

Compound: ω-agatoxin IVA
- inhibition of total ICa (P/Q-type contribution) [2]: approximately 30%

Compound: COCCOC(=O)C1=C(C)NC(C)=C(C(=O)OC(C)C)C1c1cccc([N+](=O)[O-])c1 (centres unmarked) [nimodipine]
- inhibition of total ICa (L-type contribution) (L-type): 5% and 4%

Compound: CSCC[C@@H]1NC(=O)[C@H](CC(C)C)NC(=O)[C@H](CCCCN)NC(=O)[C@H](CO)NC(=O)[C@@H]2CSSC[C@@H]3NC(=O)[C@H](CO)NC(=O)CNC(=O)[C@H](CO)NC(=O)[C@H](CSSC[C@H](N)C(=O)N[C@@H](CCCCN)C(=O)N[C@@H](CO)C(=O)N[C@@H](CCCCN)C(=O)NCC(=O)N[C@@H](C)C(=O)N[C@@H](CCCCN)C(=O)N2)NC(=O)[C@H](CSSC[C@@H](C(N)=O)NC(=O)[C@H](CCCNC(=N)N)NC(=O)CNC(=O)[C@H](C(C)C)NC(=O)[C@H]([C@@H](C)O)NC(=O)CNC(=O)[C@H](CO)NC3=O)NC(=O)[C@H](CC(=O)O)NC(=O)[C@H](Cc2ccc(O)cc2)NC1=O [CVID] (H-CKSKGAKCSKLMYDCCSGSCSGTVGRC-NH2; disulfide 1-16, 8-20, 15-27)
- reversal of CFA-induced incapacitance (impaired weight bearing) [1]: partially reversed impaired weight bearing; also recorded: most effective at reversing mechanical alldoynia; also recorded: most effective at reversal of pain; also recorded: reverse signs of inflammatory pain
- affinity for N-type calcium channels in presence of α2δ subunits [3]: significantly reduces the affinity
- recovery from block in presence of α2δ subunits [3]: decreasing recovery from CVID block
- side-effect profile of irreversible ω-conotoxins (patients): high side-effect profile

Compound: CC(C)C[C@@H]1NC(=O)[C@H](CCCNC(=N)N)NC(=O)[C@@H]2CSSC[C@@H]3NC(=O)[C@H](CO)NC(=O)[C@H](C)NC(=O)CNC(=O)[C@H](CCCCN)NC(=O)CNC(=O)[C@H](CCCCN)NC(=O)[C@@H](N)CSSC[C@H](NC(=O)[C@H](CSSC[C@@H](C(N)=O)NC(=O)[C@H](CCCNC(=N)N)NC(=O)CNC1=O)NC(=O)[C@H](CC(=O)O)NC(=O)[C@H](Cc1ccc(O)cc1)NC(=O)[C@H](CO)NC(=O)[C@H]([C@@H](C)O)NC(=O)[C@H](CCCNC(=N)N)NC(=O)[C@H](CCCNC(=N)N)NC3=O)C(=O)N[C@@H]([C@@H](C)O)C(=O)NCC(=O)N[C@@H](CO)C(=O)N2 [CVIF] (H-CKGKGASCRRTSYDCCTGSCRLGRC-NH2; disulfide 1-16, 8-20, 15-25)
- reversal of CFA-induced incapacitance (impaired weight bearing) [1]: did not produce significant reversal of incapacitance
